Measurements published in patent US5989844A, “Method for evaluating drug metabolism and reagent compositions therefor” (Pfizer Inc., priority 1997, dated 1999).

B1: CYP2C19 0.1 mg/ml: CYP2C19 microsomes at 0.1 mg/ml, tested alone (protein, UniProt P33261 1-490, looked up)
Cytochrome P450 2C19: MDPFVVLVLCLSCLLLLSIWRQSSGRGKLPPGPTPLPVIGNILQIDIKDVSKSLTNLSKIYGPVFTLYFGLERMVVLHGYEVVKEALIDLGEEFSGRGHFPLAERANRGFGIVFSNGKRWKEIRRFSLMTLRNFGMGKRSIEDRVQEEARCLVEELRKTKASPCDPTFILGCAPCNVICSIIFQKRFDYKDQQFLNLMEKLNENIRIVSTPWIQICNNFPTIIDYFPGTHNKLLKNLAFMESDILEKVKEHQESMDINNPRDFIDCFLIKMEKEKQNQQSEFTIENLVITAADLLGAGTETTSTTLRYALLLLLKHPEVTAKVQEEIERVIGRNRSPCMQDRGHMPYTDAVVHEVQRYIDLIPTSLPHAVTCDVKFRNYLIPKGTTILTSLTSVLHDNKEFPNPEMFDPRHFLDEGGNFKKSNYFMPFSAGKRICVGEGLARMELFLFLTFILQNFNLKSLIDPKDLDTTPVVNGFASVPPFYQLCFIPV
modifications: microsomes
notes: CYP2C19 microsomes at 0.1 mg/ml, tested alone

Tests used:
CYP2D6 = CYP2D6 (Homo sapiens, UniProt P10635); assay: CYP2D6-mediated metabolism: substrate disappearance in PM human liver microsome HHM-0116 supplemented with recombinant CYP2D6-expressing microsome; settings: microsomes, 1 μM substrate, 60 min incubation
Experimental: a) CYP2D6-mediated metabolism
The pH of the solution was 7.4. The incubation temperature was 37° C. At specific incubation times (0, 5, 10, 30, 60 minutes), an aliquot of 100 μl was withdrawn from the reaction mixture and mixed with 1 ml of ACN containing 5 ng/ml (2S, 3S)-3-(2-methoxybenzylamino)-2-diphenylmethyl-1-azabicyclo[2,2,2] octane as an internal standard. Protein was subsequently precipitated by centrifugation (1,800×g for 10 min). and the resulting supernatant was taken, evaporated and dissolved in 100 μl of 60% ACN. Concentrations of substrates and products in the sample solutions were analyzed with a Sciex API-III mass spectrometer linked with a Hewlett-Packard HP1090 HPLC system. A volume of 10 μl of the sample portion was injected to the HPLC system equipped with a Tosoh ODS-80Ts column manufactured by Tosoh (3.2×15 mm). Mobile phases comprised 80% acetonitrile(ACN) and 10 mM ammonium acetate and the elution was isocratic with a flow rate of 0.2 mlimin. The effluent from the HPLC column was introduced into the atmospheric pressure ionization source via an ion spray interface with splitting the effluent. The ion spray interface was operated at 5000 volt in a positive ion mode. Collision gas (argon) thickness (CGT), curtain gas (N2) and Neblizer gas (air) was 300×10^13 molecules/cm^2, 0.6 liter/minute and 40 PSI, respectively. The Q2 rod offset voltage (R2) was 0-6 V. The compounds were detected by multiple reacting monitoring (MRM) detection in the API-III mass spectrometer. The MS-MS were generally the combination of precursor and product. […] Concentrations of the remaining substrates in each sample solution (%-remaining) were plotted against the desired incubation times (FIG. 1(a), (c), (e), (g), (i), (k)).

CYP2C19 = CYP2C19 (Homo sapiens, UniProt P33261); assay: S-mephenytoin hydroxylation activity; format: biochemical; settings: 100 μM S-(+)-Mephenytoin, pH 7.4, 37 °C
Experimental: As used herein, "S-mephenytoin hydroxylation activity" means the activity of 4'hydroxylation of S-mephenytoin as measured by HPLC-MS.
The reagent compositions of this invention, PM microsome (i.e., HHM0102), normal human liver microsomes mixture (i.e., HLM mix-A, and HLM mix-B, and (CYP2C19 0.1 mg/ml) were tested for hydroxymephenytoin generation activity which is a known property of microsome obtained from a normal metabolizer.
HHM-0102 microsomes (1.0 mg protein/ml) were mixed with a total of 0.3 mg protein/ml of CYP2C19 microsomes and the control microsomes with various ratios. […] Hydroxy mephenytoin which was generated in samples were analyzed by LC/MS/MS.

Chain of CYP2D6 (P10635 whole entry): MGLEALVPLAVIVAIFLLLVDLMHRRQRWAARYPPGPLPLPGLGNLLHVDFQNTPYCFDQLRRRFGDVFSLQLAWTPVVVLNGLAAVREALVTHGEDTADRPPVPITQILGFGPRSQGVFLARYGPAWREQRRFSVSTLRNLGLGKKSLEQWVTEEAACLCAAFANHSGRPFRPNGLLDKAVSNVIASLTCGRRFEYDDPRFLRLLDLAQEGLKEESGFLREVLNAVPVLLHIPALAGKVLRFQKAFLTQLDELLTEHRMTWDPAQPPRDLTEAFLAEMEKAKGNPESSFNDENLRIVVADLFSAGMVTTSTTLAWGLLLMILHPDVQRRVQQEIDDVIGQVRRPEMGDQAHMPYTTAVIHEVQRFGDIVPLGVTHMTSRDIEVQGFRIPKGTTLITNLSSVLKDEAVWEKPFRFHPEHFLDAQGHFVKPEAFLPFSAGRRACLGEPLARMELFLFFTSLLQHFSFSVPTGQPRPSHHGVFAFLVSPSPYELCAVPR

Molecule	half-life at 1 µM (CYP2D6; pH 7.4, T1/2, HHM0116 + 0 mg/ml 2D6 (control microsome)) [min]	half-life at 1 µM (CYP2D6; pH 7.4, T1/2, HHM0116 + 0.1 mg/ml recombinant CYP2D6 microsome) [min]	half-life at 1 µM (CYP2D6; pH 7.4, T1/2, HHM0116 + 0.5 mg/ml recombinant CYP2D6 microsome) [min]	half-life at 1 µM (CYP2D6; pH 7.4, T1/2, HHM0116 + 1.0 mg/ml recombinant CYP2D6 microsome) [min]	S-mephenytoin hydroxylation Activity (CYP2C19) [pmol/min/mg]
CC(C)NCC(O)COc1cccc2ccccc12 (centres unmarked) [Propranolol, propranolol]	301	70.2	15	5.4	–
B1	–	–	–	–	18.110
